Consider 23 compounds from PubChem BioAssay AID602147 (Vanderbilt Specialized Chemistry Center, 2011).

Phospholipase D2 (Homo sapiens), sequence (O14939 whole entry, looked up): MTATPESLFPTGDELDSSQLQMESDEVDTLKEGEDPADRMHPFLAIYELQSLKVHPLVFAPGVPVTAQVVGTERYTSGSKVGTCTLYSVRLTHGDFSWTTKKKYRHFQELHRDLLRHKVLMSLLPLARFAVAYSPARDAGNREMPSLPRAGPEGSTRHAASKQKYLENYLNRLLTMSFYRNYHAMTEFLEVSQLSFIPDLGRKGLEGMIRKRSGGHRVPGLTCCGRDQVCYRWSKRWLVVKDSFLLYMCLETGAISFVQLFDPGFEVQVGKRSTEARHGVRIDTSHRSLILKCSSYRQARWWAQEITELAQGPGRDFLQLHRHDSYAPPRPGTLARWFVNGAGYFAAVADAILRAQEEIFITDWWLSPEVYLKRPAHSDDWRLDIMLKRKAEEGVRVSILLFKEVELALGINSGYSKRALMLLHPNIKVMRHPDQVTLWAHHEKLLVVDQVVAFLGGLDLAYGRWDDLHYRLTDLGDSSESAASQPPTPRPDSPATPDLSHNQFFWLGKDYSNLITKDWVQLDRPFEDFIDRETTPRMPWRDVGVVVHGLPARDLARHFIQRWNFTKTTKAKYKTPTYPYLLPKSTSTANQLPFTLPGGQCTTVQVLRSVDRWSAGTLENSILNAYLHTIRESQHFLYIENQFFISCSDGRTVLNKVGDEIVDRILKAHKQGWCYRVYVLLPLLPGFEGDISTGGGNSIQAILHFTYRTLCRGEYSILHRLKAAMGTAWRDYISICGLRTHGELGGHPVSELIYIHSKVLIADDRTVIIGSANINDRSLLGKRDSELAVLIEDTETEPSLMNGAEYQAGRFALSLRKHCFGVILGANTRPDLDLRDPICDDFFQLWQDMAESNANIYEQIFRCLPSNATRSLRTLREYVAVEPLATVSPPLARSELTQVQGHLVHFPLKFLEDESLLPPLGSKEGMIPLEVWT
Phospholipase D2 (Homo sapiens), sequence (O14939 whole entry, looked up): as above

This assay addresses Phospholipase D2 (Homo sapiens) (UniProt O14939). The assay is described as follows: PLD2 inhibitor potency in cells, dose response (AID 602147). Conditions: cellular PLD2 activity assay, concentration response.
Consider `O=C(NCCN1CCC2(CC1)C(=O)NCN2c1ccc(Cl)cc1)c1ccc(F)cc1`, for which the half-inhibitory concentration (IC50) – broadly, the point on the concentration scale where inhibition reaches its midpoint – is 5670 nM.
Then `O=C(NCCN1CCC2(CC1)C(=O)NCN2c1ccccc1)c1cc2ccccc2s1`, with 30 nM; and `COc1cc(C(=O)NCCN2CCC3(CC2)C(=O)NCN3c2ccccc2)ccc1N`, with 550 nM.
The value for `O=C(NCCN1CCC2(CC1)C(=O)NCN2c1ccc(F)cc1)c1cnc2ccccc2c1` was 40 nM.
Then `O=C(NCCN1CCC2(CC1)C(=O)NCN2c1ccc(Br)cc1)c1cc2cc(F)ccc2[nH]1`, with 100 nM.
On to `O=C(NCCN1CCC2(CC1)C(=O)NCN2c1ccc(Br)cc1)c1ccc(F)cc1`, for which the IC50 is 8000 nM.
Then `O=C(NCCN1CCC2(CC1)C(=O)NCN2c1cccc(Cl)c1)c1cnc2ccccc2c1`, with 165 nM.
As to `O=C(NCCN1CCC2(CC1)C(=O)NCN2c1cccc(F)c1)c1cnc2ccccc2c1`, the 50% inhibitory concentration (IC50) was 63 nM.
The value for `O=C(NCCN1CCC2(CC1)C(=O)NCN2c1ccc(F)cc1)c1ccc2ccccc2c1` was 80 nM.
The value for `O=C(NCCN1CCC2(CC1)C(=O)NCN2c1cccc(Cl)c1)c1ccc2ccccc2c1` was 290 nM; that for `O=C(NCCN1CCC2(CC1)C(=O)NCN2c1cccc(F)c1)c1ccc(F)cc1` was 6690 nM; that for `O=C(NCCN1CCC2(CC1)C(=O)NCN2c1ccc(F)cc1)c1ccc(F)cc1` was 610 nM.
Then `O=C(NCCN1CCC2(CC1)C(=O)NCN2c1cccc(Cl)c1)c1ccc(F)cc1`, with 70 nM; and `O=C(NCCN1CCC2(CC1)C(=O)NCN2c1ccc(Br)cc1)c1cnc2ccccc2c1`, with 360 nM; and `O=C(NCCN1CCC2(CC1)C(=O)NCN2c1ccc(Cl)cc1)c1cc2cc(F)ccc2[nH]1`, with 50 nM.
On to `O=C(C#Cc1ccccc1)NCCN1CCC2(CC1)C(=O)NCN2c1ccccc1`, for which the IC50 was 1640 nM.
Then `O=C(NCCN1CCC2(CC1)C(=O)NCN2c1ccc(Br)cc1)c1ccc2ccccc2c1`, with 350 nM.
As for `C[C@@H](CN1CCC2(CC1)C(=O)NCN2c1cccc(F)c1)NC(=O)c1ccc2ccccc2c1`, the IC50 was 60 nM.
The value for `O=C(NCCN1CCC2(CC1)C(=O)NCN2c1ccc(Cl)cc1)c1ccc2ccccc2c1` was 655 nM; that for `O=C(NCCN1CCC2(CC1)C(=O)NCN2c1cccc(Cl)c1)c1cc2cc(F)ccc2[nH]1` was 73 nM.
The value for `O=C(NCCN1CCC2(CC1)C(=O)NCN2c1cccc(F)c1)c1cc2cc(F)ccc2[nH]1` was 25 nM; that for `O=C(NCCN1CCC2(CC1)C(=O)NCN2c1ccc(Cl)cc1)c1cnc2ccccc2c1` was 200 nM; that for `O=C(NCCN1CCC2(CC1)C(=O)NCN2c1ccc(F)c(F)c1)c1ccc(F)cc1` was 660 nM.
